A word on the IC50: it is the concentration needed to halve the response being measured. What is called melting point is the temperature, or range, at which the solid turns liquid.

6 compounds from article PMC9607343, “Synthesis, Conformational Analysis and Evaluation of the 2-aryl-4-(4-bromo-2-hydroxyphenyl)benzo[1,5]thiazepines as Potential α-Glucosidase and/or α-Amylase Inhibitors” (Molecules, 2022) can be followed below.

The target in data set [1] is α-glucosidase. Description: In vitro α-glucosidase inhibitory assay (PNP-G substrate). The note with it: for IC50: three independent experiments, acarbose positive control, read-out: IC50 Values (µM ± SD) α-Glucosidase; for SI (selectivity index): SI = IC50(α-glucosidase)/IC50(α-amylase). Type of data set: biochemical. How it is done:
(§1) The IC50 values (μM) represented in Table 3 were calculated from the log dose-inhibition curves and are expressed as means ± standard deviations (SD) of three independent experiments. […] Inhibitors of α-glucosidase with mild inhibitory activity against α-amylase, on the other hand, constitute one of the major therapeutic strategies for the treatment of T2DM.
All the tests and analyses were performed in triplicates following a literature method described in our previous study. The stock solutions of the test compounds (200 µM) were prepared in DMSO, followed by dilution with a 100 mM phosphate buffer to obtain the concentrations of 100 µM. […] The enzyme solution (0.48 u/mL α-glucosidase, 17 µL); phosphate buffer (100 mM, pH 6.8; 50 µL); and test sample in DMSO (17 µL) were incubated at 37 °C for 10 min. After pre-incubation, 17 µL of 2 mM p-nitrophenyl-α-d-glucopyranoside (PNP-G) was added to each of the wells containing reaction mixtures to initiate the reaction. The absorbance was measured at 405 nm using a Bio-Rad microplate reader. The IC50 concentration was calculated using the AAT Bioquest online calculator.

Data set [2] has as its target α-amylase. Description: In vitro α-amylase inhibitory assay (CNP-G3 substrate). Type of data set: biochemical. The settings on record: three independent experiments; acarbose positive control; read-out: IC50 Values (µM ± SD) α-Amylase. The method, then: as §1
The α-amylase inhibitory assay was performed in 96-well microplates using a final volume of 200 μL, following a procedure described in the literature study. The enzyme assay was performed with a phosphate buffer ([…]) containing 0.02% NaN3 and adjusted to pH 6.0 with 2.0 M phosphoric acid. […] The enzyme solution (2.0 u/mL α-amylase, 5 µL); phosphate buffer ([…], pH 6.0; 175 µL); and 10 µL test sample were incubated at 37 °C for 10 min. After pre-incubation, 10 µL of 10 mM of 2-chloro-4-nitrophenyl-α-D-maltotrioside (CNP-G3) was added to each of the wells containing reaction mixtures to initiate the reaction. The absorbance was measured at 405 nm using a Bio-Rad microplate reader. The IC50 values were calculated using the AAT Bioquest online calculator.

`Oc1ccc(Br)cc1C1=Nc2ccccc2SC(c2ccccc2)C1` (centres unmarked) [Compound 2a, 4-Bromo-2-((E)-2,3-dihydro-2-phenylbenzo[b][1,5]thiazepine-4-yl)phenol] registered a melting point of 128 to 137 °C. The IC50 in data set [1] was 6.7 ± 0.15 µM. Moreover, the IC50 in data set [2] was 20.87 ± 0.08 µM.
With `Oc1ccc(Br)cc1C1=Nc2ccccc2SC(c2ccc(F)cc2)C1` (centres unmarked) [Compound 2b, 4-Bromo-2-((E)-2,3-dihydro-2-(4-fluorophenyl)benzo[b][1,5]thiazepine-4-yl)phenol], the melting point lay in the range of 128 to 134 °C. Besides, in data set [1], the “SI (selectivity index)” value stood at 1.09 and the IC50 was 17.2 ± 0.07 µM. Further, the half-inhibitory concentration (IC50) in data set [2] was determined as 15.85 ± 0.05 µM.
`Oc1ccc(Br)cc1C1=Nc2ccccc2SC(c2ccc(Cl)cc2)C1` (centres unmarked) [Compound 2c, 4-Bromo-2-((E)-2,3-dihydro-2-(4-chlorophenyl)benzo[b][1,5]thiazepine-4-yl)phenol]: the melting point lay in the range of 167 to 172 °C. Also, in data set [1], the “SI (selectivity index)” value is listed as 0.12 and the 50% inhibitory concentration (IC50) stood at 2.69 ± 0.27 µM. Further, the IC50 in data set [2] was determined as 22.86 ± 0.04 µM.
For `COc1cccc(C2CC(c3cc(Br)ccc3O)=Nc3ccccc3S2)c1` (centres unmarked) [Compound 2d, 4-Bromo-2-((E)-2,3-dihydro-2-(3-methoxyphenyl)benzo[b][1,5]thiazepine-4-yl)phenol], in that order: 161 to 167 °C, 0.29, 13.2 ± 1 µM and 46.16 ± 0.31 µM.
For `COc1ccc(C2CC(c3cc(Br)ccc3O)=Nc3ccccc3S2)cc1` (centres unmarked) [Compound 2e, 4-Bromo-2-((E)-2,3-dihydro-2-(4-methoxyphenyl)benzo[b][1,5]thiazepine-4-yl)phenol], in that order: 131 to 136 °C, 0.29, 15.87 ± 0.13 µM and 55.14 ± 0.19 µM.
Regarding `CC(C)c1ccc(C2CC(c3cc(Br)ccc3O)=Nc3ccccc3S2)cc1` (centres unmarked) [Compound 2f, 4-Bromo-2-((E)-2,3-dihydro-2-(4-isopropylphenyl)benzo[b][1,5]thiazepine-4-yl)phenol], the melting point was in the range of 126 to 131 °C. Moreover, in data set [1], the “SI (selectivity index)” value came out at 0.67 and the IC50 was 6.54 ± 0.11 µM. Moreover, in data set [2], the IC50 came out at 9.71 ± 0.5 µM.
